In PubChem BioAssay (NCI):
Values joined by “and” are separate entries in the source; they are usually repeats but may differ in a detail not shown here. Equal values may be shown once.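 Where inhibition never reached the appropriate level, the endpoint shown equals the highest concentration tested. Otherwise, values were interpolated linearly from a five-concentration, 48-hour dose response in 96-well plates. Here, GI50 denotes the concentration required for 50% inhibition of growth. TGI marks complete inhibition of growth.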

How the values were obtained:
Assay in all cases: NCI tumour cell line growth inhibition, 48 h; in the data active means GI50 below about 0.43 µM; inactive means the rest
[1] = test system: HL-60(TB) leukemia
[2] = test system: M14 melanoma
[3] = test system: HT29 colon
[4] = test system: LOX IMVI melanoma
[5] = test system: HCT-116 colon
[6] = test system: SK-MEL-2 melanoma
[7] = test system: K-562 leukemia
[8] = test system: 786-0 renal
[9] = test system: MDA-MB-231 breast
[10] = test system: NCI-H460 lung
[11] = test system: U251 CNS
[12] = test system: SR leukemia
[13] = test system: TK-10 renal
[14] = test system: BT-549 breast
[15] = test system: A498 renal
[16] = test system: RPMI-8226 leukemia
[17] = test system: SF-295 CNS
[18] = test system: SNB-19 CNS
[19] = test system: OVCAR-5 ovarian
[20] = test system: NCI-H226 lung
[21] = test system: SK-OV-3 ovarian
[22] = test system: MOLT-4 leukemia
[23] = test system: HCT-15 colon
[24] = test system: NCI-H23 lung
[25] = test system: SN12C renal
[26] = test system: CAKI-1 renal
[27] = test system: SK-MEL-5 melanoma
[28] = test system: MALME-3M melanoma
[29] = test system: IGROV1 ovarian
[30] = test system: UO-31 renal
[31] = test system: DU-145 prostate
[32] = test system: SK-MEL-28 melanoma
[33] = test system: MDA-N
[34] = test system: KM12 colon
[35] = test system: CCRF-CEM leukemia
[36] = test system: OVCAR-3 ovarian
[37] = test system: MDA-MB-435
[38] = test system: MCF7 breast
[39] = test system: SF-539 CNS
[40] = test system: SF-268 CNS
[41] = test system: COLO 205 colon
[42] = test system: PC-3 prostate
[43] = test system: NCI-H522 lung
[44] = test system: UACC-257 melanoma
[45] = test system: UACC-62 melanoma
[46] = test system: RXF 393 renal
[47] = test system: SNB-75 CNS
[48] = test system: ACHN renal
[49] = test system: A549 NSCLC
[50] = test system: OVCAR-8 ovarian
[51] = test system: HOP-62 NSCLC
[52] = test system: HS 578T breast
[53] = test system: T-47D breast
[54] = test system: HCC-2998 colon
[55] = test system: SW-620 colon
[56] = test system: NCI/ADR-RES ovarian
[57] = test system: HOP-92 NSCLC
[58] = test system: EKVX NSCLC
[59] = test system: OVCAR-4 ovarian

COc1cc(CC(C)NC(C)=O)cc(OC)c1 (stereo not given)
> 100 µM: TGI [1] | TGI [2] | TGI [3] | TGI [4] | TGI [5] | TGI [6] | TGI [7] | TGI [8] | TGI [9] | TGI [10] | TGI [11] | TGI [12] | TGI [13] | TGI [14] | TGI [15] | TGI [16] | TGI [17] | TGI [18] | TGI [19] | TGI [20] | TGI [21] | TGI [22] | TGI [23] | TGI [24] | TGI [25] | TGI [26] | TGI [27] | TGI [28] | TGI [29] | TGI [30] | TGI [31] | TGI [32] | TGI [33] | TGI [34] | TGI [35] | TGI [36] | TGI [37] | TGI [38] | TGI [39] | TGI [40] | TGI [41] | TGI [42] | TGI [43] | TGI [44] | TGI [45] | TGI [46] | TGI [47] | TGI [48] | TGI [49] | TGI [50] | TGI [51] | TGI [52] | TGI [53] | TGI [54] | TGI [55] | TGI [56]

COc1ccc(Cn2c3c(cc(OS(=O)(=O)C(F)(F)F)c2=O)Cc2ccccc2-3)cc1
26 µM and 43.9 µM: TGI [27]
15.4 µM and 30.8 µM: TGI [2]
50 µM: TGI [16] | TGI [51] | TGI [54]
50 µM and 20.1 µM: TGI [12]
50 µM and 36.4 µM: TGI [10]
50 µM and 32.1 µM: TGI [45]
50 µM and > 100 µM: TGI [4] | TGI [5] | TGI [6] | TGI [7] | TGI [8] | TGI [11] | TGI [13] | TGI [14] | TGI [57] | TGI [17] | TGI [18] | TGI [19] | TGI [20] | TGI [21] | TGI [22] | TGI [23] | TGI [24] | TGI [26] | TGI [28] | TGI [29] | TGI [30] | TGI [31] | TGI [32] | TGI [33] | TGI [34] | TGI [58] | TGI [35] | TGI [36] | TGI [37] | TGI [39] | TGI [40] | TGI [41] | TGI [43] | TGI [44] | TGI [46] | TGI [48] | TGI [49] | TGI [59] | TGI [50] | TGI [53] | TGI [55] | TGI [56]
50 µM and 47 µM: TGI [25]
inactive: GI50 [1] 3.6 µM | GI50 [2] 11.4 µM | GI50 [3] 79 µM | GI50 [4] 6.82 µM | GI50 [5] 3.53 µM | GI50 [6] 14.5 µM | GI50 [7] 5.1 µM | GI50 [8] 3.87 µM | GI50 [9] 5.26 µM | GI50 [11] 6.55 µM | GI50 [13] 19.5 µM | GI50 [14] 19.9 µM | GI50 [15] > 100 µM | GI50 [57] 17.6 µM | GI50 [17] 31.7 µM | GI50 [18] 23.7 µM | GI50 [19] > 100 µM | GI50 [20] 37.7 µM | GI50 [21] > 100 µM | GI50 [22] 4.18 µM | GI50 [24] 8.26 µM | GI50 [25] 5.91 µM | GI50 [26] 53 µM | GI50 [27] 7.3 µM | GI50 [28] 20.7 µM | GI50 [29] 7.26 µM | GI50 [30] 9.37 µM | GI50 [31] 17.1 µM | GI50 [32] 22.8 µM | GI50 [33] 7.55 µM | GI50 [34] 41.1 µM | GI50 [58] 3.36 µM | GI50 [35] 3.95 µM | GI50 [36] 5.12 µM | GI50 [37] 29.4 µM | GI50 [39] 5.29 µM | GI50 [40] 8.54 µM | GI50 [41] 61.1 µM | GI50 [42] 26.7 µM | GI50 [43] 7.24 µM | GI50 [44] 5.14 µM | GI50 [45] 5.39 µM | GI50 [47] > 100 µM | GI50 [48] 5.25 µM | GI50 [49] 9.95 µM | GI50 [59] 9.56 µM | GI50 [50] 9.07 µM | GI50 [52] > 100 µM | GI50 [53] 16.6 µM | GI50 [55] 5.29 µM | GI50 [56] 3.03 µM
> 100 µM: TGI [3] | TGI [9] | TGI [15] | TGI [42] | TGI [47] | TGI [52]
46.2 µM and 17 µM: TGI [1]
